Data set [1] is described as follows: Metabolite analysis in brain. The format is in vivo, ddY mouse. Conditions: mouse brain, 2 min after i.v. administration. The protocol:
A 5-week-old male ddY mouse was used as a normal mouse. [^123I]BIP-3 obtained by the method shown in Example 10, which was contained in saline containing 0.1 vol % Tween 80 and 10 vol % ethanol, was administered from the tail vein (3.70 MBq, […]). After 2 minutes, the mouse was slaughtered, and the brain was excised, homogenized in methanol (2.00 mL) and TBS (2.00 mL), and centrifuged at 4000×g at 4° C. for 10 minutes, followed by the collection of a supernatant. The obtained supernatant was passed through Cosmonice Filter (S) (0.45 μm, 4 mm) (Nacalai Tesque, Inc.) and analyzed by reverse phase HPLC. Analytical conditions for HPLC were the same as the conditions used in Example 9.

Data set [2] is described as follows: Metabolite analysis in blood. The format is in vivo, ddY mouse. Conditions: i.v.; for Proportion of parent compound in blood: mouse plasma, mean±SD n=3. As to the method:
A 5-week-old male ddY mouse was used as a normal mouse. [^123I]BIP-3 obtained by the method shown in Example 10, which was contained in saline containing 0.1 vol % Tween 80 and 10 vol % ethanol, was administered from the tail vein (3.70 MBq, 100 μL). 2 minutes, 10 minutes, or 30 minutes after administration, the mouse was slaughtered, and blood was collected into a test tube with an inner wall coated with Heparin Sodium Injection (manufactured by Nipro Pharma Corp.). After radioactivity measurement, the blood was centrifuged at 4000×g at 4° C. for 5 minutes and separated into plasma and cell components. To the obtained plasma, a 2-fold volume of methanol was added for protein denaturation, and the mixture was centrifuged at 4000×g at 4° C. for 5 minutes. The obtained supernatant was passed through Cosmonice Filter (S) (0.45 μm, 4 mm) (Nacalai Tesque, Inc.) and analyzed by reverse phase HPLC. Analytical conditions for HPLC were the same as the conditions used in Example 9.

Turning to `[123I]c1ccc2c(c1)nc1ccccn12` [[^123I]BIP-3, 7-[^123I]iodobenzo[4,5]imidazo[1,2-a]pyridine], the “metabolite analysis of brain homogenates (reverse phase HPLC)” value in data set [1] is given as “only the signal peak of the parent compound was detected”. The “Proportion of parent compound in blood” value in data set [2] (2 min after administration) turned out to be 83.1 ± 7.7; in data set [2] (10 min after administration), 23.6 ± 2.2; in data set [2] (30 min after administration) it was 8.4 ± 1.1. Further, the “metabolite formation in blood” value in data set [2] (mouse, HPLC of plasma) is given as “forms a highly water-soluble metabolite”.

These data come from US10080812B2, “Radioactive iodine labeled pyrido[1,2-a]benzoimidazole derivative compound” (priority 2015, dated 2018).
